The values that follow come from patent publication US20230339835A1, “2,3,5-TRIMETHYL-6-NONYLCYCLOHEXA-2,5-DIENE-1,4-DIONE FOR SUPPRESSING AND TREATING ALPHA-SYNUCLEINOPATHIES, TAUOPATHIES, AND OTHER DISORDERS” (PTC THERAPEUTICS, INC., priority 2018, published 2023).

In brackets after ≈: the same amount, converted by molar mass. Marks after values point to notes of the source that are not given here.

The subject of series [1] is C57Bl/6 mice, MPTP-induced model of PD. In words: Mouse MPTP model of Parkinson's Disease, open field locomotor assay. The class given is in vivo. The following applies: MPTP 60 mg/kg (3 x 20 mg/kg at two-hour intervals). From the text:
Animals. Species: Mouse. Strain: C57Bl/6. Source of Animals: Charles River. Age: 6 to 7 weeks. Sex: Male. Randomization: Animals were assigned randomly to treatment groups. Blinding of Study: Experimenters were blinded to the experimental treatments
Housing and Feeding. Acclimation/Conditioning: Not less than three days. Housing: Mice were housed on a 12 hr light/dark cycle (lights on 6:00 AM) No more than 4 mice per cage. Ventilated cage rack system. Diet: Standard rodent chow and water ad libitum.
Design Parameters. Route(s) of administration: PO. Dose Volume: PO: 5 mL/kg. Formulation(s): formulated by Melior according to directions from BioElectron. Vehicle-sesame oil (Spectrum Chemical, NF Catalog #SE130, CAS #8008-74-0). Dose Levels: 300 mg/kg. Dose Frequency: QD starting Day −2 (MPTP=Day 0) and until Day 7. Study duration: 11 days. Pretreatment time (up to 2 hrs): For Day 0 (MPTP Day): 30 min, Pretreatment time for Open Field Assay/Locomotor Activity (OFA/LMA) assay: 1 hr. Number of Groups: 3. Number of animals per group: 10. Total number of animals: 30 (in the study), 42 animals total (To ensure a proper power analysis of at least 10 animals/group, for all groups receiving MPTP, 4 additional animals were added to mitigate study impacts if there were MPTP-induced fatalities).
MPTP Treatment. MPTP was formulated in phosphate buffered saline and administered to mice three times at a dose of 20 mg/kg (1 mg/mL delivered at 20 mL/kg) at two-hour intervals (final dose of MPTP=60 mg/kg).
Locomotor activity. One day prior (baseline) and on Day 7 after MPTP administration (Day (−1) and Day 7), mice were monitored for various aspects of locomotor function using a fully automated open-field apparatus (Med-Associates, Inc). The apparatus consisted of a 10.75″×10.75″ arena enclosed in a sound-attenuated box, equipped with the fan and house light. […]
Data analysis. Data were averaged and are expressed as the average±SEM.
Data were analyzed by one-way ANOVA followed by a post-hoc tests. p-values of less than 0.05 were considered to be statistically significant from control.

Series [2] can be described thus: Solubility in simulated fluids and water. The class given is physicochemical. The procedure:
Solubility of Pattern A and melted solid was assessed in Fasted-State Simulated Gastric Fluid (FaSSGF), Fed-State Simulated Intestinal Fluid (FeSSIF), and Fasted-State Simulated Intestinal Fluid (FaSSIF), water, and 0.5% methyl cellulose+2% Tween80 in water. Five foil-covered 4 mL vials were prepared with 11-13 mg of as-received material (ID-1-1), 10 mm stir bars were included. Five foil-covered 4 mL vials containing between 11-13 mg of C9 were melted on a hot plate at 70° C. for 10 min and cooled to room temperature for 5 min, 10 mm stir bars were included.
Slurries were prepared with the as-received material ID-1-1 (Pattern A) and melted C9, each in 2.5 mL of simulated fluids (including 0.5% methyl cellulose+2% Tween80 in water), or water. The samples containing melted active pharmaceutical ingredient (API) were sonicated briefly, as they appeared to contain clumps of material. […] For solubility analysis 1 mL of each sample was pipetted into a syringe filter, the first 0.5 mL was filtered back into the source vial and the remaining 0.5 mL was filtered into HPLC vials with low volume inserts.
The response factor calculated with the calibration points was used to determine the concentrations of API in the simulated fluids and water. Calibration samples were prepared with as-received material (ID-1-1) in ACN. The concentrations and peak areas for each calibration point were plotted and a response factor calculated for solubility assessment.
Due to high pressures observed with the UPLC column, a different column and a modified method was employed for 24 h data points with 0.5% methyl cellulose+2% Tween80 in water, and 24 h in water (ID-30-4, ID-30-9 and ID-30-10). HPLC samples of ID-30-4 and 30-9 (those containing the methyl cellulose/Tween80 mixture) were diluted 10× with ACN. These samples plus a new set of injections of the calibration points were analyzed, a new response factor was determined, and the solubility of the remaining samples was calculated (response factor: 8084.7908; R2: 0.9989).

Series [3] is described as follows: Humidification cycling by dynamic vapor sorption (DVS). Format: physicochemical. The procedure:
As-received material (ID 1-1) was subjected to humidification cycling by dynamic vapor sorption (DVS) instrument. The material underwent a 0.01% change in mass in the 15-75% relative humidity range, and a 0.08% change in mass over the full range of 2-95% relative humidity. Following humidification cycling, the solid was analyzed by XRPD.

The nature of series [4]: Solid form stability, one week at 75% RH and 40° C. The class given is physicochemical. The following applies: 7 days, 75% relative humidity. The procedure: The solid form stability of the material was assessed over one week. 49.0 mg of ID-1-1 was placed inside of a foil-covered 4 mL vial, which was covered with a KimWipe. This vial was placed inside a 20 mL vial containing saturated aqueous sodium chloride. The vial was placed on a hot plate at 40° C. for 7 days, creating an atmosphere of 75% relative humidity in the system. After 7 days, the solid was sampled for HPLC (ID-4-1).
A sample of the stressed material was plated and analyzed by XRPD; the observed pattern was Pattern A. The XRPD data is shown in FIG. 16. Microscopy images of ID-4-1 were captured at 100× and 400× magnification. The images are shown in FIG. 17A (100×) and FIG. 17B (400×).

With `CN1CC=C(c2ccccc2)CC1` [MPTP, 1-methyl-4-phenyl-1,2,3,6-tetrahydropyridine, reference compound], the “depletion of dopamine in the striatum” value in series [1] is on record as about 74%.
Consider `CCCCCCCCCC1=C(C)C(=O)C(C)=C(C)C1=O` [Pattern A, 2,3,5-trimethyl-6-nonylcyclohexa-2,5-diene-1,4-dione], for which the Solubility (usually the concentration that dissolves in the medium under given conditions) at 24 hours is 310 µg/mL in series [2] (0.5% MC + 2% Tween80 (aq), Phenomenex Luna Phenyl Hexyl HPLC column and modified method); 200 µg/mL (≈ 724 µM) in series [2] (FeSSIF). Also, the “Solubility at 24 hours (mg/mL)” value was 0.31# mg/mL in series [2] (0.5% MC + 2% Tween80 (aq), Phenomenex Luna Phenyl Hexyl HPLC column and modified method, listed as A); “BDL” in series [2] (FaSSGF); “BDL” in series [2] (FaSSIF); “BDL” in series [2] (water). Also, the “Conc. (mg/mL) at 30 min” value in series [2] (0.5% MC + 2% Tween80 (aq.)) was 0.53 mg/mL; in series [2] (FaSSGF), “BDL”; in series [2] (FaSSIF) it was 0.01 mg/mL; in series [2] (FeSSIF) it was 0.29 mg/mL; in series [2] (water), “BDL”. The “DVS Change Mass (wt. %)” value in series [3] (2-95% RH) is listed as 0.08 wt. %; in series [3] (15-75% RH) it was 0.01 wt. %. Further, the “change in mass (DVS)” value in series [3] (15-75% relative humidity range) was determined as 0.01%; in series [3] (full range of 2-95% relative humidity), 0.08%. For the same compound, the hygroscopicity entry in series [3] (DVS humidification cycling) is recorded as “not hygroscopic”. Moreover, the “XRPD pattern of stressed material” value in series [4] is recorded as “Pattern A”. Further, the “impurities by HPLC in stability sample” value in series [4] is listed as “did not show any impurities”.
